The results in this text go back to patent US10919927B2, “Immune stimulating macrolide” (ISR IMMUNE SYSTEM REGULATION HOLDING AB (PUBL), priority 2017, dated 2021).

The efflux ratio is the permeability from basolateral to apical divided by that in the opposite direction, in the common usage. One may read the Papp A→B as how fast a substance crosses the layer from the apical side. Read a high Papp A→B as fast passage.

Structures are written as SMILES. “Also recorded” adds a separate entry of the source.

Data set [1] relates to E. coli, S. salivarius, L. casei, B. longum or M. luteus. Description: Direct antibacterial activity, all bacterial strains tested (summary). Format: cell-based. Here is the method: The bioactivity of macrolide compounds against 4 strains of common gut bacteria (Escherichia coli, Streptococcus salivarius subsp. salivarius, Lactobacillus casei and Bifidobacterium longum subsp. infantis) and common mammalian skin isolate Micrococcus luteus, was assessed using the Minimum Inhibitory Concentration (MIC) assay. Bacterial strains were purchased from DSMZ (Brunswick, Germany) except M. luteus which was obtained from NCIMB, and stored in 20% glycerol at −80° C. Stock solutions (100% DMSO) of positive controls (azithromycin and erythromycin), and of test compounds 1 and 2 were diluted in broth to working stock concentrations of 256 μg/ml (final assay testing concentration range 128 μg/ml to 0.00391 μg/ml). Stock solutions of all other compounds were diluted in broth to working stock concentrations of 128 μg/ml (final assay testing concentration range 64 μg/ml to 0.00195 μg/ml). Bacterial strains were cultivated in appropriate broth in an anaerobic chamber at 37° C., except for M. luteus which was incubated aerobically at 37° C. 18 h cultures were diluted in broth to an OD595 of 0.1 and then further diluted 1:10. In 96-well plates, in duplicate, 200 μl working stock of test compound was transferred to well 1 and serially diluted (1:2) in broth. 100 μl bacterial suspension was aliquoted into each well and mixed thoroughly. Appropriate sterility controls were included and plates were incubated in an anaerobic chamber, or aerobically (M. luteus) at 37° C. for 18 h. The MIC was determined to be the concentration of test compound in the first well with no visible growth.

The target in another data set is T1, human TLR2 (Homo sapiens, UniProt O60603).
T1 construct: host or cells: recombinant HEK-293-TLR cell lines
Description: TLR2 reporter assay (HEK-293-TLR cells, SEAP). As to conditions: concentrations 5 uM up to 20 uM. The data set is classed as cell-based. As to the method:
These cell lines functionally over-express human TLR2 protein as well as a reporter gene which is a secreted alkaline phosphatase (SEAP). The production of this reporter gene is driven by an NFkB inducible promoter. The TLR reporter cell lines activation results are given as optical density values (OD).
20 μl of each test article were used to stimulate the hTLR2 reporter cell lines in a 200 μl of final reaction volume. Samples were tested in duplicate, with at least two concentrations tested—20 uM and 10 uM.
Compounds were tested using a TLR2 reporter assay (see general methods) that measured for stimulation of the TLR2 receptor. Stimulatory effect was measured as an increase in optical density, as compared to the negative control (OD) due to release of secreted alkaline phosphatase (SEAP) and is shown in table 2.
Background: Reporter assays use an easily measured gene product as a stand-in for the process of interest.

Data set [2] can be described thus: Caco-2 bidirectional permeability assay. The data set is classed as in vitro ADME. As to conditions: human, Caco-2, 10 μM, 90 minutes. As to the method:
(§1) 10 μM Test article was added to the apical (A) surface of Caco-2 cell monolayers (in HBSS buffer with 0.3% DMSO and 5 μM LY at 37 degrees C.) and compound permeation into the basolateral (B) compartment measured following 90 minutes incubation. This was also performed in the reverse direction (basolateral to apical) to investigate active transport. LC-MS/MS is used to quantify levels of both the test and standard control compounds. Efflux ratio was calculated by dividing the B to A permeability by the […]. Drug permeability: Papp=(VA/(Area×time))×([drug]accepter/(([drug]initial,donor)×Dilution Factor). Assessment of Metabolic Stability (Microsome Stability Assay)
(§2) Compounds were tested using a standard caco-2 bidirectional permeability assay (see general methods).
(Caco-2 cells form a polarised layer with tight junctions and transporters.)

A further data set deals with Caco-2 cell monolayers. Description: Caco-2 bidirectional permeability assay. Format: in vitro ADME. Here is the method: as §1, §2
In data set [3] the test system is PBMCs from cytomegalovirus (CMV) infected donors. Description: Cytomegalovirus (CMV) antigen cultures. The data set is classed as cell-based, Human. Here is the method: Human peripheral blood mononuclear cells (PBMCs) were purified from healthy CMV positive donors with Ficoll-Paque density centrifugation. The PBMC were labeled with 5 μM celltrace violet (Invitrogen) in PBS for 15 minutes and then washed with complete cell culture medium. The labeled PBMC was cultured in the presence of a peptide library spanning the CMV pp65 protein (1 μg peptide/ml, JPT) in AIM-V media (Invitrogen) supplemented with L-glutamine, Sodium pyruvate (Sigma), 10% fetal bovine serum, 100 μg/mL penicillin and 100 μg/mL streptomycin (Hyclone) for 6-8 days in 37° C., 5% CO2. Cell proliferation was assessed with flow cytomtery using a BD FACS Canto II flow cytometer.
Study 7: Virus specific T cell proliferation was also affected by compound 1. […] CD127 is crucial for T cell homeostasis, differentiation and function, and reduced expression correlates with disease severity in HIV and other chronic viral diseases (Crawley et al Sem Imm 2012).
Study 8: PBMCs from CMV infected donors cultured in the presence of CMV antigen where either untreated or exposed to compound 1 or compound 2 for 3 days.

In a further data set the test system is PBMCs. Briefly: Cytokine secretion from PBMC, cytometric bead assay. The data set is classed as cell-based, Human. As to conditions: 2 days. From the text: (§3) Study 10: PBMCs and macrophages where exposed to compounds 1 or 2 for 2 days (FIG. 11).
(§4) Study 11: PBMCs and macrophages where exposed to compounds 1 and 2 for 2 days.
(§5) Study 12: PBMCs, macrophages and CD4+ T cells where exposed to compounds 1 and 2 for 2 days.

Data set [4] relates to Macrophages from healthy donors. Description: Cytokine secretion from macrophages, cytometric bead assay. Format: cell-based, Human. As to the method: Study 9: Macrophages from healthy donors where exposed to compounds 1 or 2 for 48 hours. […] Compound 1 is therefore able to induce IFN-gamma secretion in macrophages from healthy donors.
as §3, §4, §5

A further data set relates to CD4+ T cells. Briefly: IL-1beta secretion from CD4+ T cells, cytometric bead assay. Format: cell-based, Human. As to conditions: 2 days.
Text: as §5

Data set [5] deals with C57bl/6 mice. Description: CD25 high cells in blood of mice after i.v. injection. Format: in vivo. As to conditions: highest dose of 5 mg/kg, 24 h. As to the method: FIG. 14: % CD25 high cells in blood of C57bl/6 mice injected 24 h previously with indicated dose of compound 1. CD25 expression was measured by flow cytometry.
Study 13: Compound 1 was administered i.v. to C57bl/6 mice at 0.165 mg/kg to 5 mg/kg. CD25+ cell abundance was increased in animals receiving the highest dose of 5 mg/kg (FIG. 14), as was body weight in the same group (not shown).

Data set [6] deals with C57bl/6 mice. Briefly: MHC class I expression on CD11b+ splenocytes of mice after i.v. injection. Format: in vivo. Conditions: spleen 24 h later. As to the method: FIG. 15: % MHC class I high CD11 b+ cells in spleen of 3 individual C57bl/6 mice injected 24 h previously with indicated compound. MHC class I and CD11 b expression was measured by flow cytometry.
Study 14: Compound 1 or 2 was administered i.v. to C57bl/6 mice.

T1 sequence (O60603 21-784): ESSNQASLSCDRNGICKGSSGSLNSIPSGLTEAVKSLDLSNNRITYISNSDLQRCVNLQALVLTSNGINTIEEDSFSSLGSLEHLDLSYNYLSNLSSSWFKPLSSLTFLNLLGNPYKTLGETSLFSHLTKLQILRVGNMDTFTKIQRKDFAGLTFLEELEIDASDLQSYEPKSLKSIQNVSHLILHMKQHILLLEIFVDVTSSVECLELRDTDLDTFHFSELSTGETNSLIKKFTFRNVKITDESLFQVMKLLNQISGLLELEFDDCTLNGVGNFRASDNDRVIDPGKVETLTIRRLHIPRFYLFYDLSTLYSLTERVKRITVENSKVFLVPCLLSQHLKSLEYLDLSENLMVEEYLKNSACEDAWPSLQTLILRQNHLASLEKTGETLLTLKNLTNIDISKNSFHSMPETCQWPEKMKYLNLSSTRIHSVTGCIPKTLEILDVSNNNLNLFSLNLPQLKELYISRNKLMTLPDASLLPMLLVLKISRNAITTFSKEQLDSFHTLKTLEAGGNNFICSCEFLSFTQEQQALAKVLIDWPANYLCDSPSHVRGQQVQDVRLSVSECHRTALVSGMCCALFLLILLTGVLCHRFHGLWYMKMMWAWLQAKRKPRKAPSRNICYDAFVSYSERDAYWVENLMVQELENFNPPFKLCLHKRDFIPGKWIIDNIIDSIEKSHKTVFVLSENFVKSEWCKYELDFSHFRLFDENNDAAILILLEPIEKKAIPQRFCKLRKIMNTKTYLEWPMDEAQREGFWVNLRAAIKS

On to `CC[C@H]1OC(=O)[C@H](C)[C@@H](O[C@H]2C[C@@](C)(OC)[C@@H](O)[C@H](C)O2)[C@H](C)[C@@H](O[C@@H]2O[C@H](C)C[C@H](N(C)C)[C@H]2O)[C@](C)(O)C[C@@H](C)CN(C)[C@H](C)[C@@H](O)[C@]1(C)O` [Azithromycin, reference compound], for which the “antibacterial activity (in words)” value in data set [1] is “potent activity”. In addition, the “TLR2 stimulation (in words)” value at human TLR2 was “little or no stimulation”. In addition, in data set [2], the efflux ratio at 90 min, 10 μM was greater than 77.6. Moreover, the Papp A→B at 90 min, 10 μM in data set [2] (apical to basolateral) was less than 0.14 ×10⁻⁶ cm/s.
Take `CC[C@H]1OC(=O)[C@H](C)[C@@H](O[C@H]2C[C@@H](N(C)C)[C@H](O)[C@@H](C)O2)[C@H](C)[C@@H](O)[C@](C)(O)C[C@@H](C)CN(C)[C@H](C)[C@@H](O)[C@]1(C)O` [Compound 1]: the “antibacterial activity (in words)” value in data set [1] is given as “no antibacterial activity; also recorded: no or minimal antibacterial effect”. Moreover, the “TLR2 stimulation (in words)” value on human TLR2 is on record as “stimulated TLR2 at concentrations down to 5 uM”. For the same compound, in data set [2], the efflux ratio at 90 min, 10 μM came to 63.4. In the data set with Caco-2 cell monolayers, the “cell permeability compared with Azithromycin and EM703 (in words)” value is listed as “more cell permeable”; the “efflux ratio compared with Azithromycin and EM703 (in words)” value was “lower efflux ratio”. In data set [3] (3 days), the IFN-gamma secretion result was “induced secretion of high levels”. Besides, the “IL-7 receptor α (CD127) on activated CMV specific CD8+ T cells” value in [3] (6 days) is recorded as “increased expression”. In the data set with PBMCs, the “IL-1beta secretion in PBMCs” value was “slightly”, the “IL-12p70 secretion from PBMCs” value is reported as “secreted IL-12p70” and the “expression of RANTES in PBMCs” value is given as “twofold upregulation”. In data set [4] (2 days), the “IL-1beta secretion in macrophages” value was “increased”, the “IL-12p70 secretion from macrophages” value was “secreted IL-12p70” and the “expression of RANTES in macrophages” value was “high expression”. For the same compound, the “IFN-gamma secretion from macrophages” value in [4] (48 hours) is recorded as “secreted IFN-gamma”. Besides, the “IL-1beta secretion in CD4+ T cells” value with CD4+ T cells is “no IL-1beta was induced”. The “CD25+ cell abundance in blood” value in the data set on C57bl/6 mice [5] is “increased”. For the same compound, the “splenocyte cells (CD11b+) with high MHC I expression” value with C57bl/6 mice [6] is given as “increase”.
With `CC[C@H]1OC(=O)[C@H](C)[C@@H](O[C@H]2C[C@@](C)(OC)[C@@H](O)[C@H](C)O2)[C@H](C)[C@@H](O[C@@H]2O[C@H](C)C[C@H](N(C)C)[C@H]2O)[C@](C)(O)C[C@@H](C)C(=O)[C@H](C)[C@@H](O)[C@]1(C)O` [Erythromycin, Erythromycin A, reference compound], the “antibacterial activity (in words)” value in data set [1] is “potent activity”. The “TLR2 stimulation (in words)” value at human TLR2 is “little or no stimulation”.
